Data reported in US20260198495A1, “BINARY INSECTICIDE COMPOSITION AND USE THEREOF” (SHENYANG SINOCHEM AGROCHEMICALS R & D CO., LTD., priority 2022, published 2026).
Values after ≈ are worked out from the molar mass of the structure shown.

What was measured:
Format in all cases: in vivo
Cnaphalocrocis medinalis = assay: Field efficacy trial of I-72 and Bacillus thuringiensis on rice, Example 86, Table 86; details: 20 days after application
Description: This trial was arranged in the suburban area of Jurong City, Jiangsu Province. The conventional spraying method was adopted in the trial. The investigation method was to take samples at 5 points, and a total of 25 clusters of rice were investigated. The investigation was performed 20 days after the pesticide application. By comparing with the leaf rolling rate in the control plot, the relative control efficacy was calculated. The amount of water used per mu was 45 L.
The test pesticides were as follows: A: 8000 IU/μL Bacillus thuringiensis suspension (produced by Qingdao Audis Biotechnology Co., Ltd. of Shandong), and B: compound I-72 (dissolved in acetone, 0.1% Tween 80 was added, and a 10% stock solution was prepared for use).
[formula] [formula] • in the formula, CK is the leaf rolling rate in the blank control plot after the pesticide application

[1] = system: Aphis gossypii Glover nymphs; assay: Joint toxicity of I-72 + nitenpyram, Example 67, Table 67; details: A = compound I-72, B = nitenpyram, cotton leaf spraying, 48 hours, read-out: LC50
Description: Test target: Aphis gossypii Glover nymphs, a sensitive strain reared indoors.
(§1) Preparation of the pesticide solution: according to different test requirements, the test samples were accurately weighed respectively with an electronic analytical balance. The technical pesticides were dissolved in acetone, and then diluted with 0.1% Tween 80 water into a series of pesticide solutions with a certain concentration gradient according to the experimental design dosage.
(§2) Experimental method: first, cotton leaves with uniform and consistent Aphis gossypii were selected, with about 30-40 insects on each leaf. Then, they were evenly sprayed with the pesticide solution in the order from low dosage to high dosage according to the experimental design, with 1.5 mL for each leaf and 3 replicates for each treatment. In addition, a blank control was set up.
(§3) The treated test materials were placed in an observation room, and the temperature, humidity and illumination of the observation room could be adjusted as needed. The number of dead and live insects was investigated 48 hours later. […] Then, the co-toxicity coefficient of each ratio was calculated using the Sun Y-P method to evaluate the mixing effect (the same as in Example 1).

[2] = system: Nilaparvata lugens (Stal) nymphs; assay: Joint toxicity of I-72 + triflumezopyrim, Example 75, Table 75; details: Nilaparvata lugens; A = compound I-72, B = triflumezopyrim; potted-seedling spraying; 72 hours; read-out: LC50
Description: (§4) Test target: Nilaparvata lugens (Stal) nymphs, a sensitive strain reared indoors.
as §1
(§5) Experimental method: the activity of the mixture against the Nilaparvata lugens (Stal) nymphs was determined by adopting the potted-seedling spraying method. First, rice seedlings were planted in culture pots. Uniform spraying was performed with the pesticide solution in the order from low dosage to high dosage according to the experimental design, with 2 mL for each seedling. Then, Nilaparvata lugens nymphs of uniform size were transferred onto the rice seedlings, with 3 replicates for each treatment. In addition, a blank control was set up.
as §3, with “72” for “48”

[3] = system: Myzus persicae (Sulzer) nymphs; assay: whole plant or invertebrate; details: A = compound I-72, B = clothianidin, cabbage leaf spraying, 48 hours, read-out: LC50
Description: Test target: Myzus persicae (Sulzer) nymphs, a sensitive strain reared indoors.
as §1
as §2, with “cabbage” for “cotton”, “Myzus persicae (Sulzer)” for “Aphis gossypii”, “mL of the solution” for “mL”
The treated test materials were placed in an observation room, and the temperature, humidity and illumination of the observation room could be adjusted as needed. The number of dead and live insects was investigated 48 hours later.

[4] = system: Nilaparvata lugens (Stal) nymphs; assay: Joint toxicity of I-72 + etofenprox, Example 44, Table 44; details: A = compound I-72, B = etofenprox, potted rice seedling spraying, 72 hours, read-out: LC50
Description: as §4, §1, §5
as §3, with “72” for “48”

[5] = system: Nilaparvata lugens (Stal) nymphs; assay: Joint toxicity of I-72 + imidacloprid, Example 70, Table 70; details: A = compound I-72, B = imidacloprid, potted-seedling spraying, 72 hours, read-out: LC50
Description: as §4, §1, §5
as §3, with “72” for “48”

[6] = system: Thrips flavus Schrank nymphs; assay: Joint toxicity of I-72 + tolfenpyrad, Example 62, Table 62; details: A = compound I72, B = tolfenpyrad, eggplant seedling spraying, 48 hours, read-out: LC50
Description: Test target: Thrips flavus Schrank nymphs.
as §1
Experimental method: first, eggplant seedlings with Thrips flavus Schrank were selected, and the base number was counted. Then, uniform spraying was performed with the pesticide solution in the order from low to high doses according to the experimental design, with 2 mL for each seedling and 3 replicates for each treatment. In addition, a blank control was set up.
as §3

[7] = system: 2nd-instar larvae of Spodoptera exigua Hübner; assay: Joint toxicity of I-72 + lufenuron, Example 54, Table 54; details: foliar, A = compound I-72, B = lufenuron, cabbage leaf dipping, 72 hours, read-out: LC50
Description: Test target: 2nd-instar larvae of Spodoptera exigua Hübner.
as §1
Experimental method: first, cabbage leaves were selected and dipped in the prepared pesticide solution for 10 s in the order from low dosage to high dosage according to the experimental design. After natural air-drying in the shade, they were placed in a 9-cm-diameter Petri dish with filter paper, and uniform and healthy test insects were introduced, with 10 insects for each treatment and 3 replicates for each treatment. In addition, a blank control was set up.
as §3, with “72” for “48”

[8] = system: adult Bemisia tabaci (Gennadius); assay: whole plant or invertebrate; details: in Phaseolus vulgaris, 72 h
Description: as §1
In addition, a blank control was set up. The number of dead and live insects was investigated 72 hours later.

## CN(C(=O)c1ccc2c(c1)OC(F)(F)O2)c1cccc(C(=O)Nc2c(Br)cc(C(F)(C(F)(F)F)C(F)(F)F)cc2OC(F)F)c1F [Compound I-72]
Cnaphalocrocis medinalis; dose 9 ml per mu
  Control efficacy: 79.6%
  Leaf rolling rate: 8.6%
Cnaphalocrocis medinalis; dose 11.25 ml per mu
  Control efficacy: 85.0%
  Leaf rolling rate: 6.3%
Cnaphalocrocis medinalis; dose 13.5 ml per mu
  Control efficacy: 86.8%
  Leaf rolling rate: 5.6%
[1]
  LC50: 3 µg/mL
[2]
  LC50: 285 µg/mL
[3]
  LC50: 8.05 µg/mL (≈ 10.9 µM)
[4]
  LC50: 282 µg/mL
[5]
  LC50: 243 µg/mL
[6]
  LC50: 2.02 µg/mL
[7]
  LC50: 0.273 µg/mL
[8]
  LC50: 2.91 µg/mL (≈ 3.92 µM)
